{"source": "patent US10189803B2", "about": "“Synthesis of therapeutic and diagnostic drugs centered on regioselective and stereoselective ring opening of aziridinium ions” (ILLINOIS INSTITUTE OF TECHNOLOGY, priority 2008, dated 2019)", "system": "HT29 cancer cells", "test": "Fluorescence imaging of cellular uptake in live HT29 cancer cells", "type": "cell-based, Human", "conditions": "50 μM, 0.5 h incubation", "description": "In order to visualize cellular uptake using fluorescence imaging, C-NE3TA was conjugated with an organic fluorescent moiety, NBD to produce C-NE3TA-NBD (FIG. 40). Thus, the starting material 15 was reacted with NBD-Cl to provide the fluorescent conjugate 16. t-Butyl groups in Compound 16 were removed by treating 4M HCl in 1,4-dioxane. C-NE3TA has the respective excitation and emission wavelength of 446 nm and 512 nm. Fluorescence and phase contrast images of control HT29 cells or HT29 cells incubated with C-NE3TA-NBD (50 μM) were obtained using a confocal microscope with a band-pass filter set at 436/20 nm (excitation) and 535/30 nm (emission). […] It was noted that the control HT29 colon cancer cells also emit auto-fluorescence at the wavelength of excitation. While polyaminocarboxylate NE3TA is too hydrophilic to enter the cancer cells, C-NE3TA-NBD containing liphophilic moieties, both benzyl and NBD group is proposed to penetrate into the cells resulting in the punctuate present in the cancer cells.\nFluorescence Imaging of live cancer cells. HT29 cancer cells were plated in glass cover slips which placed in 6-well plates, and were incubated with growth media in a humidified atmosphere with 5% CO2 at 37° C. overnight. Control cells or cells containing C-NE3TA-NBD (50 μM, H2O) were incubated with media for 0.5 h under 5% CO2 at 37° C. […]\nFluorescence imaging of live cancer cells. […]"}
{"molecule": "O=C(O)CNC(Cc1ccc(Nc2ccc([N+](=O)[O-])c3nonc23)cc1)CN1CCN(CC(=O)O)CCN(CC(=O)O)CC1", "note": "(stereo not shown) [C-NE3TA-NBD, (4-Carboxymethyl-7-{2-(carboxymethyl-amino)-3-[4-(7-nitro-benzo[1,2,5]oxadiazol-4-ylamino)-phenyl]-propyl}-[1,4,7]triazonan-1-yl)-acetic acid]", "values": [{"measurement": "cellular uptake by fluorescence imaging (in words)", "value": "does accumulate in the HT29 cancer cells"}]}
